Measured values as given in BigSolDB 2.1.

Compound: NC(=O)OCCCc1ccccc1
- solubility (mole fraction) (in 2-butanone, 283.15 K): 0.0601
- solubility (mole fraction) (in 2-butanone, 288.15 K): 0.0718
- solubility (mole fraction) (in 2-butanone, 293.15 K): 0.0829
- solubility (mole fraction) (in 2-butanone, 298.15 K): 0.0993
- solubility (mole fraction) (in 2-butanone, 303.15 K): 0.117
- solubility (mole fraction) (in 2-butanone, 308.15 K): 0.131
- solubility (mole fraction) (in 2-butanone, 313.15 K): 0.147
- solubility (mole fraction) (in 2-butanone, 318.15 K): 0.164
- solubility (mole fraction) (in 2-butanone, 323.15 K): 0.187
- solubility (mole fraction) (in acetone, 283.15 K): 0.0652
- solubility (mole fraction) (in acetone, 288.15 K): 0.0775
- solubility (mole fraction) (in acetone, 293.15 K): 0.0939
- solubility (mole fraction) (in acetone, 298.15 K): 0.107
- solubility (mole fraction) (in acetone, 303.15 K): 0.12
- solubility (mole fraction) (in acetone, 308.15 K): 0.137
- solubility (mole fraction) (in acetone, 313.15 K): 0.158
- solubility (mole fraction) (in acetone, 318.15 K): 0.179
- solubility (mole fraction) (in acetone, 323.15 K): 0.202
- solubility (mole fraction) (in ethanol, 283.15 K): 0.0156
- solubility (mole fraction) (in ethanol, 288.15 K): 0.0178
- solubility (mole fraction) (in ethanol, 293.15 K): 0.0239
- solubility (mole fraction) (in ethanol, 298.15 K): 0.0307
- solubility (mole fraction) (in ethanol, 303.15 K): 0.0392
- solubility (mole fraction) (in ethanol, 308.15 K): 0.0493
- solubility (mole fraction) (in ethanol, 313.15 K): 0.0623
- solubility (mole fraction) (in ethanol, 318.15 K): 0.0808
- solubility (mole fraction) (in ethanol, 323.15 K): 0.1
- solubility (mole fraction) (in ethyl acetate, 283.15 K): 0.0493
- solubility (mole fraction) (in ethyl acetate, 288.15 K): 0.0567
- solubility (mole fraction) (in ethyl acetate, 293.15 K): 0.0687
- solubility (mole fraction) (in ethyl acetate, 298.15 K): 0.0803
- solubility (mole fraction) (in ethyl acetate, 303.15 K): 0.0929
- solubility (mole fraction) (in ethyl acetate, 308.15 K): 0.104
- solubility (mole fraction) (in ethyl acetate, 313.15 K): 0.117
- solubility (mole fraction) (in ethyl acetate, 318.15 K): 0.13
- solubility (mole fraction) (in ethyl acetate, 323.15 K): 0.144
- solubility (mole fraction) (in isopropanol, 283.15 K): 0.0108
- solubility (mole fraction) (in isopropanol, 288.15 K): 0.0149
- solubility (mole fraction) (in isopropanol, 293.15 K): 0.0207
- solubility (mole fraction) (in isopropanol, 298.15 K): 0.0261
- solubility (mole fraction) (in isopropanol, 303.15 K): 0.0339
- solubility (mole fraction) (in isopropanol, 308.15 K): 0.0439
- solubility (mole fraction) (in isopropanol, 313.15 K): 0.0587
- solubility (mole fraction) (in isopropanol, 318.15 K): 0.0769
- solubility (mole fraction) (in isopropanol, 323.15 K): 0.0904
- solubility (mole fraction) (in methanol, 283.15 K): 0.0202
- solubility (mole fraction) (in methanol, 288.15 K): 0.0247
- solubility (mole fraction) (in methanol, 293.15 K): 0.0321
- solubility (mole fraction) (in methanol, 298.15 K): 0.0396
- solubility (mole fraction) (in methanol, 303.15 K): 0.0492
- solubility (mole fraction) (in methanol, 308.15 K): 0.0614
- solubility (mole fraction) (in methanol, 313.15 K): 0.0752
- solubility (mole fraction) (in methanol, 318.15 K): 0.1
- solubility (mole fraction) (in methanol, 323.15 K): 0.118
- solubility (mole fraction) (in methyl acetate, 283.15 K): 0.0494
- solubility (mole fraction) (in methyl acetate, 288.15 K): 0.059
- solubility (mole fraction) (in methyl acetate, 293.15 K): 0.0719
- solubility (mole fraction) (in methyl acetate, 298.15 K): 0.0862
- solubility (mole fraction) (in methyl acetate, 303.15 K): 0.101
- solubility (mole fraction) (in methyl acetate, 308.15 K): 0.119
- solubility (mole fraction) (in methyl acetate, 313.15 K): 0.139
- solubility (mole fraction) (in methyl acetate, 318.15 K): 0.161
- solubility (mole fraction) (in methyl acetate, 323.15 K): 0.186
- solubility (mole fraction) (in n-butanol, 283.15 K): 0.00704
- solubility (mole fraction) (in n-butanol, 288.15 K): 0.012
- solubility (mole fraction) (in n-butanol, 293.15 K): 0.0198
- solubility (mole fraction) (in n-butanol, 298.15 K): 0.0279
- solubility (mole fraction) (in n-butanol, 303.15 K): 0.0391
- solubility (mole fraction) (in n-butanol, 308.15 K): 0.0492
- solubility (mole fraction) (in n-butanol, 313.15 K): 0.0663
- solubility (mole fraction) (in n-butanol, 318.15 K): 0.0824
- solubility (mole fraction) (in n-butanol, 323.15 K): 0.0972
- solubility (mole fraction) (in n-pentanol, 283.15 K): 0.0174
- solubility (mole fraction) (in n-pentanol, 288.15 K): 0.02
- solubility (mole fraction) (in n-pentanol, 293.15 K): 0.0239
- solubility (mole fraction) (in n-pentanol, 298.15 K): 0.031
- solubility (mole fraction) (in n-pentanol, 303.15 K): 0.0404
- solubility (mole fraction) (in n-pentanol, 308.15 K): 0.0523
- solubility (mole fraction) (in n-pentanol, 313.15 K): 0.0668
- solubility (mole fraction) (in n-pentanol, 318.15 K): 0.081
- solubility (mole fraction) (in n-pentanol, 323.15 K): 0.0946
- solubility (mole fraction) (in n-propanol, 283.15 K): 0.0127
- solubility (mole fraction) (in n-propanol, 288.15 K): 0.0155
- solubility (mole fraction) (in n-propanol, 293.15 K): 0.0219
- solubility (mole fraction) (in n-propanol, 298.15 K): 0.028
- solubility (mole fraction) (in n-propanol, 303.15 K): 0.0349
- solubility (mole fraction) (in n-propanol, 308.15 K): 0.045
- solubility (mole fraction) (in n-propanol, 313.15 K): 0.0589
- solubility (mole fraction) (in n-propanol, 318.15 K): 0.0771
- solubility (mole fraction) (in n-propanol, 323.15 K): 0.0989
- solubility (mole fraction) (in sec-butanol, 283.15 K): 0.0138
- solubility (mole fraction) (in sec-butanol, 288.15 K): 0.017
- solubility (mole fraction) (in sec-butanol, 293.15 K): 0.0226
- solubility (mole fraction) (in sec-butanol, 298.15 K): 0.0299
- solubility (mole fraction) (in sec-butanol, 303.15 K): 0.0405
- solubility (mole fraction) (in sec-butanol, 308.15 K): 0.0515
- solubility (mole fraction) (in sec-butanol, 313.15 K): 0.0679
- solubility (mole fraction) (in sec-butanol, 318.15 K): 0.092
- solubility (mole fraction) (in sec-butanol, 323.15 K): 0.118
- solubility (mole fraction) (in water, 283.15 K): 8.1e-06
- solubility (mole fraction) (in water, 288.15 K): 1.5e-05
- solubility (mole fraction) (in water, 293.15 K): 3.19e-05
- solubility (mole fraction) (in water, 298.15 K): 5.99e-05
- solubility (mole fraction) (in water, 303.15 K): 0.000107
- solubility (mole fraction) (in water, 308.15 K): 0.000165
- solubility (mole fraction) (in water, 313.15 K): 0.000229
- solubility (mole fraction) (in water, 318.15 K): 0.000293
- solubility (mole fraction) (in water, 323.15 K): 0.000378
